Data published in patent US5672609A, “Pyridine compounds, intermediates compositions and methods of use” (Eli Lilly and Company, priority 1996, dated 1997).

Legend:
Assay type in all cases: in vivo, female Sprague Dawley rats
uterus = assay: Uterine weight in ovariectomized rats, 4-day oral dosing (Table 1); details: Rattus norvegicus, po, 96 h, OVX rats, daily for 4 days, read-out: Uterine Wt. (% inc. vs. OVX); for change in vivo at 1 mg/kg: 1 mg/kg oral; for change in vivo at 10 mg/kg: 10 mg/kg oral; for change in vivo at 25 mg/kg: 25 mg/kg oral; for change in vivo at 0.1 mg/kg: 0.1 mg/kg oral
Description: In the examples illustrating the methods, a post-menopausal model was used in which effects of different treatments upon circulating lipids were determined.
(§1) Seventy-five day old female Sprague Dawley rats (weight range of 200 to 225 g) were obtained from Charles River Laboratories (Portage, Mich.). The animals were either bilaterally ovariectomized (OVX) or exposed to a sham surgical procedure at Charles River Laboratories, and then shipped after one week. Upon arrival, they were housed in metal hanging cages in groups of 3 or 4 per cage and had ad libitum access to food (calcium content approximately 0.5%) and water for one week. Room temperature was maintained at 22.2° ±1.7° C. with a minimum relative humidity of 40%. The photoperiod in the room was 12 hours light and 12 hours dark.
(§2) Dosing Regimen Tissue Collection. After a one week acclimation period (therefore, two weeks post-OVX) daily dosing with test compound was initiated. 17α-ethynyl estradiol or the test compound were given orally, unless otherwise stated, as a suspension in 1% carboxymethylcellulose or dissolved in 20% cyclodextrin. Animals were dosed daily for 4 days. Following the dosing regimen, animals were weighed and anesthetized with a ketamine: Xylazine (2:1, V:V) mixture and a blood sample was collected by cardiac puncture. The animals were then sacrificed by asphyxiation with CO2, the uterus was removed through a midline incision, and a wet uterine weight was determined.
(§3) Data presented in Table 1 below show comparative results among ovariectomized rats, rats treated with 17α-ethynyl estradiol (EE2; an orally available form of estrogen), and rats treated with certain compounds of the present invention. […] This uterine response to estrogen is well recognized in the art.
(§4) The data presented in Table 1 below reflects the response of 5 to 6 rats per treatment.

[1] = system: Uterine Eosinophil Peroxidase (EPO); assay: Uterine Eosinophil Peroxidase (EPO) Assay (Table 1); design: key to Uterine EPO (V. max): Vmax of absorbance increase at 450 nm, monitored over 1 min; details: OVX rats, daily for 4 days
Source text: as §1, §2
Uterine Eosinomhil Peroxidase (EPO) Assay. Uteri were kept at 4° C. until time of enzymatic analysis. The uteri were then homogenized in 50 volumes of 50 mM Tris buffer (pH-8.0) containing 0.005% Triton X-100. Upon addition of 0.01% hydrogen peroxide and 10 mM O-phenylenediamine (final concentrations) in Tris buffer, increase in absorbance was monitored for one minute at 450 nm. The presence of eosinophils in the uterus is an indication of estrogenic activity of a compound. The maximal velocity of a 15 second interval was determined over the initial, linear portion of the reaction curve.
As is expressed in the below data, estrogenicity also was assessed by evaluating the response of eosinophil infiltration into the uterus.
as §4

Serum cholesterol = Serum cholesterol in ovariectomized rats, 4-day oral dosing (Table 1); details: Rattus norvegicus, po, 96 h, OVX rats, daily for 4 days; for inhibition in vivo at 1 mg/kg: 1 mg/kg oral; for inhibition in vivo at 1 mg/kg / inhibition in vivo at 10 mg/kg / inhibition in vivo at 25 mg/kg / inhibition in vivo at 0.1 mg/kg: read-out: Serum Cholesterol (% dec. vs. OVX); for inhibition in vivo at 10 mg/kg: 10 mg/kg oral; for inhibition in vivo at 25 mg/kg: 25 mg/kg oral; for ED50: oral, dose column in mg/kg, read-out: ED50 (effective dose to dec. serum chol. by 50%); for inhibition in vivo at 0.1 mg/kg: 0.1 mg/kg oral
Source text: as §1, §2
Cholesterol Analysis. Blood samples were allowed to clot at room temperature for 2 hours, and serum was obtained following centrifugation for 10 minutes at 3000 rpm. Serum cholesterol was determined using a Boehringer Mannheim Diagnostics high performance cholesterol assay. Briefly the cholesterol was oxidized to cholest-4-en-3-one and hydrogen peroxide. The hydrogen peroxide was then reacted with phenol and 4-aminophenazone in the presence of peroxidase to produce a p-quinone imine dye, which was read spectrophotometrically at 500 nm. Cholesterol concentration was then calculated against a standard curve. The entire assay was automated using a Biomek Automated Workstation.
as §3, §4

| SMILES | change in vivo at 1 mg/kg (uterus) | change in vivo at 10 mg/kg (uterus) | change in vivo at 25 mg/kg (uterus) | Uterine EPO (V. max) ([1]; 1 mg/kg oral) | Uterine EPO (V. max) ([1]; 10 mg/kg oral) | Uterine EPO (V. max) ([1]; 25 mg/kg oral) | inhibition in vivo at 1 mg/kg (Serum cholesterol) | inhibition in vivo at 10 mg/kg (Serum cholesterol) | inhibition in vivo at 25 mg/kg (Serum cholesterol) | ED50 (Serum cholesterol) | change in vivo at 0.1 mg/kg (uterus) | Uterine EPO (V. max) ([1]; 0.1 mg/kg oral) | inhibition in vivo at 0.1 mg/kg (Serum cholesterol) |
| --- | --- | --- | --- | --- | --- | --- | --- | --- | --- | --- | --- | --- | --- |
| COc1ccc(-c2ccc(C)nc2-c2ccc(OCCN(C)C)cc2)cc1 [Example 1, 2-[4-[2-(1-N,N-Dimethylamino)ethoxy]phenyl]-3-(4-methoxyphenyl)-6-methylpyridine] | 0.6% | 2.6% | 5.2% | 2.9 | 2.5 | 2.3 | 15% | 14.9% | 22.2% | > 1000 mg/kg | – | – | – |
| COc1ccc(-c2ccc(C)nc2-c2ccc(OCCN3CCCC3)cc2)cc1 [Example 2, 2-[4-[2-(1-Pyrrolidinyl)ethoxy]phenyl]-3-(4-methoxyphenyl)-6-methylpyridine] | 12.7% | -12.5% | 19.5% | 6.6 | 5.9 | 59.8 | -23.6% | -33.5% | 9.7% | > 10 mg/kg | – | – | – |
| COc1ccc(-c2ccc(C)nc2-c2ccc(OCCN3CCOCC3)cc2)cc1 [Example 3, 2-[4-[2-(4-Morpholinyl)ethoxy]phenyl]-3-(4-methoxyphenyl)-6-methylpyridine] | 4.9% | -6.1% | -2.3% | 10.8 | 6 | 3.8 | 4.5% | 1.4% | -11.6% | > 10 mg/kg | – | – | – |
| COc1ccc(-c2ccc(-c3ccc(OC)cc3)c(-c3ccc(OCCN4CCCC4)cc3)n2)cc1 [Example 5, 2-[4-[2-(1-Pyrrolidinyl)ethoxy]phenyl]-3,6-bis(4-methoxyphenyl)pyridine] | -7.6% | 27.2% | – | 4.2 | 23.1 | – | 14% | 23.5% | – | > 10 mg/kg | -6.5% | 4.5 | 2.4% |
| COc1ccc(-c2ccc(C)nc2-c2ccc(OCCN3CCCCC3)cc2)cc1 [Example 7, 2-[4-[2-(1-Piperidinyl)ethoxy]phenyl]-3-(4-methoxyphenyl)-6-methylpyridine] | – | – | -5.6% | – | – | 3.6 | – | – | -1.2% | – | – | – | 23.2% |
| Cc1ccc(-c2ccc(O)cc2)c(-c2ccc(OCCN(C)C)cc2)n1 [Example 8, 2-[4-[2-(N,N-Dimethylamino)ethoxy]phenyl]-3-(4-hydroxyphenyl)-6-methylpyridine] | -1.5% | -1% | 41.6% | 5 | 6.7 | 58.6 | 15.7% | 1.5% | 46.4% | 26 mg/kg | – | – | – |
| Cc1ccc(-c2ccc(O)cc2)c(-c2ccc(OCCN3CCCCC3)cc2)n1 [Example 10, 2-[4-[2-(1-Piperidinyl)ethoxy]phenyl]-3-(4-hydroxyphenyl)-6-methylpyridine] | 3.4% | 7% | 47% | 4.4 | 3.4 | 6.8 | 8.4% | 1.7% | 17.9% | > 10 mg/kg | – | – | – |
| Cc1ccc(-c2ccc(O)cc2)c(-c2ccc(OCCN3CCOCC3)cc2)n1 [Example 11, 2-[4-[2-(4-Morpholinyl)ethoxy]phenyl]-3-(4-hydroxyphenyl)-6-methylpyridine] | -0.8% | 27% | 5% | 4.8 | 4.9 | 4.4 | 16% | 18.2% | -3.6% | > 10 mg/kg | – | – | – |
| Oc1ccc(-c2ccc(-c3ccccc3)nc2-c2ccc(OCCN3CCCC3)cc2)cc1 [Example 13, 2-[4-[2-(1-Pyrrolidinyl)ethoxy]phenyl]-3-(4-hydroxyphenyl)-6-phenylpyridine] | 54% | 38.8% | 35.5% | – | – | – | 53.8% | 36.8% | – | < 1 mg/kg | 23.8% | 4.5 | 1.8% |
